{"source": "BindingDB's records for patent WO2022076495", "about": "(MERCK SHARP & DOHME CORP., 2022)", "target": "T1, Diacylglycerol O-acyltransferase 2 (Homo sapiens, UniProt Q96PD7)", "T1 sequence (Q96PD7 whole entry)": "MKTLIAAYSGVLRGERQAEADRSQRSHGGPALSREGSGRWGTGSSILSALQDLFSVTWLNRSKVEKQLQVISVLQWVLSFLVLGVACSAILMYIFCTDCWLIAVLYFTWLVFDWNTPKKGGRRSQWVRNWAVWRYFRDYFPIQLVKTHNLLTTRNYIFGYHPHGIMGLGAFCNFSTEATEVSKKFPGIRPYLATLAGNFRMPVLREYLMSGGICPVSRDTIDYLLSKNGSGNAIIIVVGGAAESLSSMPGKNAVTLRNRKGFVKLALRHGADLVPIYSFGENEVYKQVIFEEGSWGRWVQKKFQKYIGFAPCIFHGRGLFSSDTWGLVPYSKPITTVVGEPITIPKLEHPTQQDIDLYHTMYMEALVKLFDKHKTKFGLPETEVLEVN", "assay": "DGAT2 enzymatic activity assay", "description": "DGAT2 activity was determined by measuring the amount of enzymatic product 13Ci8-triolein (13C-l,2,3-Tri(cis-9-octadecenoyl)glycerol) using the membrane prep mentioned above. The assay was carried out in ABgene 384-well assay plates in a final volume of 25 pL at rt. The assay mixture contained the following: assay buffer (100 mM Tris Cl, pH 7.0, 20 mM MgCl2, 5% ethanol), 25 pM of di olein, 5 μM of 13C oleoyl-CoA and 8 ng/pL of DGAT2 membrane.", "note": "pIC50: −log10 of the molar value.", "data": [{"smiles": "CC(C)n1c(=O)n(-c2cccc(OC(F)F)c2)c2cc(F)c(C(=O)N[C@@H]3CCCC[C@H]3O)cc21", "note": "[WO2022076495, EXAMPLE 31]", "values": [{"measurement": "pIC50", "result": 6.97}]}]}
